Test results published in patent US11161856B2 (H. Lundbeck A/S, priority 2017, dated 2021).

Experiments:
Type in all cases: biochemical
[1] = molecular target: T1, ABHD6 (Mus musculus, UniProt Q8R2Y0); assay: In vitro competitive activity-based protein profiling, mouse brain proteome (ABHD6); conditions: mouse brain proteome; concentration not given (μM)
T1 construct: Brain; from tissue; host or cells: mouse brain proteome
T1 sequence (Q8R2Y0 1-336): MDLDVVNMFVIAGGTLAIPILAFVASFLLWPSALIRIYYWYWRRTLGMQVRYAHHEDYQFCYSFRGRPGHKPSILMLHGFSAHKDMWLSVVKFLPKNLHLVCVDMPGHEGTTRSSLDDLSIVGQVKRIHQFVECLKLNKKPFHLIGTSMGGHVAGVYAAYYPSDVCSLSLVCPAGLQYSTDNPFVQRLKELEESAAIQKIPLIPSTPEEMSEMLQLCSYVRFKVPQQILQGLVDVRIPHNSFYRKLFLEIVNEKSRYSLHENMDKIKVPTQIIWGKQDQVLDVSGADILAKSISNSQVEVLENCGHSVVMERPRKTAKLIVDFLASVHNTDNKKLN
Description: [The source words this procedure for another target and reports this target under the same test.] In Vitro Competitive Activity-Based Protein Profiling.
Proteomes (human prefrontal cortex or cell membrane fractions) (50 μL, 1.0 mg/mL total protein concentration) were preincubated with varying concentrations of inhibitors at 37° C. After 30 min, FP-Rh or HT-01 (1.0 μL, 50 μM in DMSO) was added and the mixture was incubated for another 30 min at room temperature. Reactions were quenched with SDS loading buffer (15 μL-4×) and run on SDS-PAGE.

[2] = molecular target: T2, MGLL (Mus musculus, UniProt O35678); assay: In vitro competitive activity-based protein profiling, mouse brain proteome (MGLL); conditions: concentration not given (μM)
T2 construct: Brain; from tissue; host or cells: mouse brain proteome
T2 sequence (O35678 1-303): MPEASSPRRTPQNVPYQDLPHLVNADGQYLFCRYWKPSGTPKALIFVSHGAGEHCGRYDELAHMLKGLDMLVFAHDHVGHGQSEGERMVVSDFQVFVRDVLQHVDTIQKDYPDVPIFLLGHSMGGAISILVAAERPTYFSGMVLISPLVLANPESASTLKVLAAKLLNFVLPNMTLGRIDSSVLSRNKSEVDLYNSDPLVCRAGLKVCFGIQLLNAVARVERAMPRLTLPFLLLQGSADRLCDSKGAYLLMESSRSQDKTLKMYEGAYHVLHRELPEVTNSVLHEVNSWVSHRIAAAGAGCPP

[3] = molecular target: T3, MAGL (Homo sapiens, UniProt Q99685); assay: In vitro competitive activity-based protein profiling (FP-Rh or HT-01 probe, gel-based); conditions: prefrontal cortex (PFC) proteome, concentration not given (μM)
T3 construct: Proteomes (human prefrontal cortex or cell membrane fractions); from tissue
T3 sequence (Q99685 1-303): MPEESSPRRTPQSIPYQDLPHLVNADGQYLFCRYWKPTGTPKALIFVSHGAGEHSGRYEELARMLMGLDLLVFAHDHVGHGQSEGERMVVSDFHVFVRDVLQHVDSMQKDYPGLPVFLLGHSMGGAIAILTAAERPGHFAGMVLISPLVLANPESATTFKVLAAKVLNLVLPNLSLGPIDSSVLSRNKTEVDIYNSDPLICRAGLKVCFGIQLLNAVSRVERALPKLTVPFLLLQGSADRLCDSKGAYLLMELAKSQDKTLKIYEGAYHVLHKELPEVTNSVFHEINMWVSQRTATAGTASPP
In short: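 Human prefrontal cortex or cell membrane proteomes (1.0 mg/mL total protein) were preincubated with varying inhibitor concentrations for 30 min at 37° C. FP-Rh or HT-01 probe (50 μM DMSO stock) was then added for 30 min at room temperature, and samples were quenched in SDS loading buffer and resolved by SDS-PAGE.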

O=C(O)[C@H]1CCCN(c2cc(CN3CC4(CCN(C(=O)OC(C(F)(F)F)C(F)(F)F)CC4)C3)cc(C(F)(F)F)c2)C1 [Example 106, (S)-1-(3-((7-(((1,1,1,3,3,3-Hexafluoropropan-2-yl)oxy)carbonyl)-2,7-diazaspiro[3,5]nonan-2-yl)methyl)-5-(trifluoromelhyl)phenyl) piperidine-3-carboxylic acid]
% Inh ABHD6 Brain (Mouse, μM) [1]: ### (### is ≥75%) | % Inh MGLL Brain (Mouse, μM) [2]: ### (### is ≥75%) | % Inh MGLL PFC (Human, μM) [3]: ### (### is ≥75%)

O=C(O)[C@@H]1CCCN(c2cc(C(F)(F)F)ccc2CN2CC3(CCN(C(=O)OC(C(F)(F)F)C(F)(F)F)CC3)C2)C1 [Example 107, (R)-1-(2-((7-(((1,1,1,3,3,3-Hexafluoropropan-2-yl)oxy)carbonyl)-2,7-diazaspiro[3,5]nonan-2-yl)methyl)-5-(trifluoromethyl)phenyl) piperidine-3-carboxylic acid]
% Inh ABHD6 Brain (Mouse, μM) [1]: # (# is ≤25%) | % Inh MGLL Brain (Mouse, μM) [2]: ### (### is ≥75%) | % Inh MGLL PFC (Human, μM) [3]: ### (### is ≥75%)

CN(Cc1ccc(C(F)(F)F)cc1N1CCOC(C(=O)O)C1)C1(C)CCN(C(=O)OC(C(F)(F)F)C(F)(F)F)CC1 (stereo not drawn) [Example 108, 4-(2-(((1-(((1,1,1,3,3,3-Hexafluoropropan-2-yl)oxy)carbonyl)-4-methylpiperidin-4-yl)(methyl)amino)methyl)-5-(trifluoromethyl)phenyl) morpholine-2-carboxylic acid]
% Inh ABHD6 Brain (Mouse, μM) [1]: ## (## is between 25 and 75%) | % Inh MGLL Brain (Mouse, μM) [2]: ### (### is ≥75%) | % Inh MGLL PFC (Human, μM) [3]: ### (### is ≥75%)

O=C(OC(C(F)(F)F)C(F)(F)F)N1CCC2(CC1)CCN(C(=O)c1ccc(C(F)(F)F)c(Cl)c1)C2 [Example 109, 1,1,1,3,3,3-Hexafluoropropan-2-yl 2-(3-chloro-4-(trifluoromethyl)benzoyl)-2,8-diazaspiro[4.5]decane-8-carboxylate]
% Inh ABHD6 Brain (Mouse, μM) [1]: ### (### is ≥75%) | % Inh MGLL Brain (Mouse, μM) [2]: ### (### is ≥75%) | % Inh MGLL PFC (Human, μM) [3]: ### (### is ≥75%)

O=C(OC(C(F)(F)F)C(F)(F)F)N1CCC2(CC1)CCN(C(=O)c1cc(Cl)cc(C(F)(F)F)c1)C2 [Example 110, 1,1,1,3,3,3-Hexafluoropropan-2-yl 2-(3-chloro-5-(trifluoromethyl)benzoyl)-2,8-diazaspiro[4.5]decane-8-carboxylate]
% Inh ABHD6 Brain (Mouse, μM) [1]: ### (### is ≥75%) | % Inh MGLL Brain (Mouse, μM) [2]: ### (### is ≥75%) | % Inh MGLL PFC (Human, μM) [3]: ### (### is ≥75%)

O=C(O)[C@H]1CCCN(c2cc(C(F)(F)F)ccc2CN2CC3(CCN(C(=O)OC(C(F)(F)F)C(F)(F)F)CC3)C2)C1 [Example 111, (S)-1-(2-((7-(((1,1,1,3,3,3-hexafluoropropan-2-yl)oxy)carbonyl)-2,7-diazaspiro[3,5]nonan-2-yl)methyl)-5-(trifluoromethyl)phenyl) piperidine-3-carboxylic acid]
% Inh ABHD6 Brain (Mouse, μM) [1]: ### (### is ≥75%) | % Inh MGLL Brain (Mouse, μM) [2]: ### (### is ≥75%) | % Inh MGLL PFC (Human, μM) [3]: ### (### is ≥75%)

CC1(C(=O)O)CCCN(c2cc(C(F)(F)F)ccc2CN2CC3(CCN(C(=O)OC(C(F)(F)F)C(F)(F)F)CC3)C2)C1 (stereo not drawn) [Example 112, l-(2-((7-(((1,1,1,3,3,3-Hexafluoropropan-2-yl)oxy)carbonyl)-2,7-diazaspiro[3.5]nonan-2-yl)methyl)-5-(trifluoromethyl)phenyl)-3-methylpiperidine-3-carboxylic acid]
% Inh ABHD6 Brain (Mouse, μM) [1]: ## (## is between 25 and 75%) | % Inh MGLL Brain (Mouse, μM) [2]: ### (### is ≥75%) | % Inh MGLL PFC (Human, μM) [3]: ### (### is ≥75%)

O=C(O)C1COCCN1c1cc(C(F)(F)F)ccc1CN1CC2(CCN(C(=O)OC(C(F)(F)F)C(F)(F)F)CC2)C1 (stereo not drawn) [Example 113, 4-(2-((7-(((1,1,1,3,3,3-Hexafluoropropan-2-yl)oxy)carbonyl)-2,7-diazaspiro[3.5]nonan-2-yl)methyl)-5-(trifluoromethyl)phenyl)moiph oline-3-carboxylic acid]
% Inh ABHD6 Brain (Mouse, μM) [1]: # (# is ≤25%) | % Inh MGLL Brain (Mouse, μM) [2]: ## (## is between 25 and 75%) | % Inh MGLL PFC (Human, μM) [3]: # (# is ≤25%)

CC1(C(=O)O)CCCN(c2cc(CN3CC4(CCN(C(=O)OC(C(F)(F)F)C(F)(F)F)CC4)C3)cc(C(F)(F)F)c2)C1 (stereo not drawn) [Example 114, l-(3-((7-(((1,1,1,3,3,3-Hexafluoropropan-2-yl)oxy)carbonyl)-2,7-diazaspiro[3,5]nonan-2-yl)methyl)-5-(trifluoromethyl)phenyl)-3-methylpiperidine-3-carboxylic acid]
% Inh ABHD6 Brain (Mouse, μM) [1]: # (# is ≤25%) | % Inh MGLL Brain (Mouse, μM) [2]: ### (### is ≥75%) | % Inh MGLL PFC (Human, μM) [3]: ### (### is ≥75%)

CC1(C(=O)O)CCN(c2cc(C(F)(F)F)ccc2CN2CC3(CCN(C(=O)OC(C(F)(F)F)C(F)(F)F)CC3)C2)C1 (stereo not drawn) [Example 115, l-(2-((7-(((1,1,1,3,3,3-Hexafluoropropan-2-yl)oxy)carbonyl)-2,7-diazaspiro[3,5]nonan-2-yl)methyl)-5-(trifluoromethyl)phenyl)-3-methylpyrrolidine-3-carboxylic acid]
% Inh ABHD6 Brain (Mouse, μM) [1]: # (# is ≤25%) | % Inh MGLL Brain (Mouse, μM) [2]: ### (### is ≥75%) | % Inh MGLL PFC (Human, μM) [3]: ### (### is ≥75%)

O=C(O)C1CCN(c2cc(Cl)cc(CN3CC4(CCN(C(=O)OC(C(F)(F)F)C(F)(F)F)CC4)C3)c2)CC1 [Example 116, l-(3-Chloro-5-((7-(((1,1,1,3,3,3-hexafluoropropan-2-yl)oxy)carbonyl)-2,7-diazaspiro[3.5]nonan-2-yl)methyl)phenyl)piperidine-4-carboxylic acid]
% Inh ABHD6 Brain (Mouse, μM) [1]: ### (### is ≥75%) | % Inh MGLL Brain (Mouse, μM) [2]: ### (### is ≥75%) | % Inh MGLL PFC (Human, μM) [3]: ### (### is ≥75%)

O=C(O)C1CCN(c2cc(F)cc(CN3CC4(CCN(C(=O)OC(C(F)(F)F)C(F)(F)F)CC4)C3)c2)CC1 [Example 117, 1-(3-Fluoro-5-((7-(((1,1,1,3,3,3-hexafluoropropan-2-yl)oxy)carbonyl)-2,7-diazaspiro[3.5]nonan-2-yl)methyl)phenyl)piperidine-4-carboxylic acid]
% Inh ABHD6 Brain (Mouse, μM) [1]: ## (## is between 25 and 75%) | % Inh MGLL Brain (Mouse, μM) [2]: ### (### is ≥75%) | % Inh MGLL PFC (Human, μM) [3]: ### (### is ≥75%)

O=C(OC(C(F)(F)F)C(F)(F)F)N1CCC2(CC1)CCN(C(=O)c1ccc(C(F)(F)F)cc1Cl)C2 [Example 119, 1,1,1,3,3,3-Hexafluoropropan-2-yl 2-(2-chloro-4-(trifluoromethyl)benzoyl)-2,8-diazaspiro[4.5]decane-8-carboxylate]
% Inh ABHD6 Brain (Mouse, μM) [1]: ### (### is ≥75%) | % Inh MGLL Brain (Mouse, μM) [2]: ### (### is ≥75%) | % Inh MGLL PFC (Human, μM) [3]: ### (### is ≥75%)

O=C(O)C1CCCCN1c1cc(CN2CC3(CCN(C(=O)OC(C(F)(F)F)C(F)(F)F)CC3)C2)cc(C(F)(F)F)c1 (stereo not drawn) [Example 120, l-(3-((7-(((1,1,1,3,3,3-Hexafluoropropan-2-yl)oxy)carbonyl)-2,7-diazaspiro[3,5]nonan-2-yl)methyl)-5-(trifluoromethyl)phenvl)piperidine-2-carboxylic acid]
% Inh ABHD6 Brain (Mouse, μM) [1]: ### (### is ≥75%) | % Inh MGLL Brain (Mouse, μM) [2]: ### (### is ≥75%) | % Inh MGLL PFC (Human, μM) [3]: ### (### is ≥75%)
